Results taken from US20050107356A1, “Combination of a CB1 receptor antagonist and of a product which activates dopaminergic neurotransmission in the brain, the pharmaceutical compositions comprising them and their use in the treatment of parkinson's disease” (Aventis Pharma S.A., priority 2001, published 2005).
Marks after values point to notes of the source that are not given here.

Columns and labels:
Type in all cases: in vivo
Reserpine-treated rats [1] = assay: Reserpine-induced akinesia in the rat, locomotor activity; CB1 antagonist i.p. co-administered with quinpirole (D2 dopaminergic agonist); conditions: CB1 antagonist 1.5 mg/kg i.p., locomotor activity recorded 1 hour
Method: (§1) The synergistic effect of the combination of one or more products which activate dopaminergic neurotransmission in the brain and of one or more CB1 antagonists in the treatment of Parkinson's disease was determined in a model of akinesia induced by reserpine in the rat according to the following protocol:
(§2) Male Sprague-Dawley rats were treated with reserpine administered subcutaneously at a dose of 3 mg/kg (1 ml/kg) in order to induce akinesia in the animal. 18 hours after this treatment, the locomotor activity of these animals was measured and recorded using an automatic system (Videotrack, France). The locomotion, expressed in centimeters, is estimated by a mean overall distance covered during this period (n=11-38 rats per group). The statistical analysis is carried out by a variance analysis and a post-hoc comparison (if appropriate) using a Mann-Whitney or Dunnett test. A significant effect is recorded for p<0.05.
(§3) The results for the ip administration of the CB1 antagonists (Table 1) are expressed as percentage of increase with respect to the activity of quinpirole and as percentage of decrease with respect to the activity of a very strong dose of levodopa.
The combination of a CB1 receptor antagonist and of a D2 dopaminergic agonist (quinpirole) is produced in the following way: […]

Reserpine-treated rats [2] = assay: Reserpine-induced akinesia in the rat, locomotor activity; CB1 antagonist i.p. co-administered with a strong dose of levodopa + benserazide (dyskinesia model); conditions: CB1 antagonist 3 mg/kg i.p., levodopa + benserazide 50 mg/kg, recorded 2.5 hours
Method: as §1, §2, §3
The combination of a CB1 receptor antagonist and of a strong dose of levodopa (dyskinesia model) is produced in the following way: […]

Reserpine-treated rats [3] = assay: Reserpine-induced akinesia in the rat, locomotor activity; CB1 antagonist po one hour before quinpirole (D2 dopaminergic agonist); conditions: recorded 1 hour
Method: as §1, §2
(§4) The studies by the oral route are carried out in a hydrophobic formulation solvent Labrafil/Labrasol (40/60%, w/w). These products are administered (in a volume of 1 ml/kg) one hour before the dopaminergic agonist. The recording of the locomotor activity begins 5 min after the intraperitoneal injection of the dopaminergic agonist and lasts 1 hour. The D1 dopaminergic agonist is 0.3 mg/kg C1-APB. The D2 dopaminergic agonist is 0.1 mg/kg quinpirole.

Reserpine-treated rats [4] = assay: Reserpine-induced akinesia in the rat, locomotor activity; CB1 antagonist po one hour before C1-APB (SKF 82958, D1 dopaminergic agonist); conditions: recorded 1 hour
Method: as §1, §2, §4

CS(=O)(=O)C(=C1CN(C(c2ccc(Cl)cc2)c2ccc(Cl)cc2)C1)c1cc(F)cc(F)c1 [Example 1, 1-[bis(4-chlorophenyl)methyl]-3-[(3,5-difluorophenyl)(methylsulfonyl)methylene]azetidine]
Combination with quinpirole (62.5 μg/kg ip): percentage of increase with respect to the activity of quinpirole (Reserpine-treated rats [1]): +125%***
Combination with levodopa (120 mg/kg ip): percentage of decrease with respect to the activity of a very strong dose of levodopa (Reserpine-treated rats [2]): −42%*
Combination with quinpirole (0.1 mg/kg ip): percentage of increase with respect to the activity of quinpirole (Reserpine-treated rats [3]; CB1 antagonist 1 mg/kg po): +33% NS
Combination with quinpirole (0.1 mg/kg ip): percentage of increase with respect to the activity of quinpirole (Reserpine-treated rats [3]; CB1 antagonist 3 mg/kg po): +58%**
Combination with quinpirole (0.1 mg/kg ip): percentage of increase with respect to the activity of quinpirole (Reserpine-treated rats [3]; CB1 antagonist 10 mg/kg po): +23% NS
Combination with C1-APB (0.3 mg/kg ip): percentage of decrease with respect to the activity of a strong dose of C1-APB (Reserpine-treated rats [4]; CB1 antagonist 1 mg/kg po): −33% NS
Combination with C1-APB (0.3 mg/kg ip): percentage of decrease with respect to the activity of a strong dose of C1-APB (Reserpine-treated rats [4]; CB1 antagonist 3 mg/kg po): −67%**
Combination with C1-APB (0.3 mg/kg ip): percentage of decrease with respect to the activity of a strong dose of C1-APB (Reserpine-treated rats [4]; CB1 antagonist 10 mg/kg po): −62%**
